The source of these data is patent US20140106387A1, “METHOD FOR CONTROLLING NAD(P)/NAD(P)H RATIO BY OXIDOREDUCTASE” (MD BIOALPHA CO., LTD., priority 2006, published 2014).

Experiment [1] relates to HEK293 cells. In words: intracellular NADH / NAD(P)H concentration in HEK293 cells. In kind it is cell-based, human. The note with it: for intracellular NADH concentration: 2 hours. The method, then:
2) Determination of Intracellular NAD(P)H Using a Water-Soluble Tetrazolium Salt-8 (WST-8) in Living Cells:
A water-soluble tetrazolium salt was used to monitor the amount of NAD(P)H through its reduction to a yellow colored formazan dye. The total amount of NAD(P)H within viable cells in the medium was determined periodically by a spectrophotometer. Cells were seeded in 96-well plates (2×10^4 cells/well) and were cultured in 100 μl of a medium containing fetal bovine serum (FBS) and antibiotics for 24 hours. Immediately after treatment of the cells with a candidate compound (e.g., pyrano-1,2-naphthoquinone) at indicated concentrations and a 1/10 volume of a CCK-8 solution (Dojindo Molecular Technology), absorbance measurements were carried out using a spectrophotometer. The CCK-8 solution consisted of a water-soluble 2-(2-methoxy-4-nitrophenyl)-3-(4-nitrophenyl)-5-(2,4-disulfophenyl)-2H-tetrazolium monosodium salt (WST-8, 5 mM) and 1-methoxy-5-methylphenazinium methylsulfate (1-methoxy PMS, 0.2 mM) as an electron mediator. WST-8 produced a water-soluble yellow colored formazan dye through its bioreduction either in the presence of an electron carrier, 1-methoxy PMS and NAD(P)H or directly by NAD(P)H. Therefore, the reduction in tetrazolium salts mostly depends on the amount of intracellular NAD(P)H. The amount of formazan dye produced by the living cells in the medium was determined periodically at a wavelength of 450 nm (reference filter. 650 nm) by a spectrophotometer and compared to the values of control. In addition, a medium blank was prepared with only medium and physiological saline.
In order to monitor monochromatic fluorescence (350 nm), light was illuminated using a 75 W xenon arc lamp directed via a 10 Hz chopper wheel; specific fluorescence intensity was measured at a wavelength of 405±15 nm and 460±10 nm.
Specifically, the NQO1 activity and changes in the intracellular NAD(P)H fluorescence concentration in the presence/absence of NQO1 activity were measured in HepG2, HEK293 and pSG5 HA-NQO1 or pSG5 HA NQO1 C609T-inserted HEK293 cells.

Experiment [2] concerns ACC, CPT, HAD. In words: enzyme assays, malonyl-CoA content and fatty acid oxidation in DIO mice. In kind it is in vivo, mouse. The method, then:
For Enzyme assays, cytoplasm was extracted from mouse tissues. Dicoumarol-sensitive NQO1 activity was determined by a conventional method known in the art: This method is based on an absorbance decrease at 600 nm due to bioreduction of DCPIP. Total AMPK activity was determined with a known method using synthetic “SAMS” peptides and [γ-^32P] ATP. ACC activity was determined by quantifying fixation of ^14CO2 to the acid-stable product in the presence/absence of citrate (2 mM) as an allosteric activator of ACC. CPT (carnitine palmitoyl transferase) activity was measured in L6 myoblasts and soleus muscle by a known method. HAD (3-hydroxyacyl-CoA dehydrogenase) activity was determined in L6 myoblasts and soleus muscle by monitoring conversion of acetoacetyl-CoA into L-3-hydroxybutyryl CoA and the concomitant oxidation of NADH into NAD^+. The reaction was monitored at 340 nm by a known method.
[^14C]palmitoyl-CoA (Perkin Elmer) oxidation was determined in L6 myoblasts and soleus muscle by a known method using labeled CO2 and 0.2 mL of benzethonium chloride solution.
Contents of Malonyl-CoA were determined by a known method, e.g. HPLC. Acyl-CoA esters were separated by HPLC using 0.2 M ammonium acetate-containing acetonitrile/water (1.75:98.25). Samples were washed with 20 min, and subjected to 100 min linear gradient elution from acetonitrile/water (10:90) containing 0.2 M ammonium acetate.
That is, such facts mean that chronic treatment of βL can accelerate mitochondrial oxidative phosphorylation and enhance adaptive mitochondrial biogenesis. Therefore, βL can be used as a therapeutic agent for metabolic diseases.

Experiment [3] deals with cardiomyocytes. In words: mitochondrial membrane potential (TMRE fluorescence) in cardiomyocytes. Type of experiment: cell-based. The method, then: (§1) For determination of the inner mitochondrial membrane potential (ΔΨm), 20 nM of TMRE (tetramethylrhodamine ethyl ester) as a fluorescent indicator was continuously applied to be loaded on cells. In order to monitor mitochondrial Ca^2+, cells on glass coverslips were loaded with 10 μM Rhod-2 AM via cold loading/warm incubation. In order to monitor cytosolic Ca^2+, cells were co-loaded with 10 μM Fluo-4 AM at 37′C for 30 min. The cells were washed twice with a KB solution, and mounted in a perfusion chamber. Fluorescent imaging was taken using a confocal laser scanning microscope (LSM-510 META, Carl Zeiss) at a magnification of ×200 and ×400, in conjunction with appropriate laser lines and a filter set. Image analysis was carried out using LSM-510 META software (Zeiss). Images for TMRE (red fluorescence), Rhod-2 (red fluorescence) and Fluo-4 (green fluorescence) were obtained using an inverted Zeiss 510META laser-scanning confocal microscope equipped with ×63 numerical aperture, 1.4 oil-immersion planapochromat lens. Green fluorescence and red fluorescence were illuminated with light of 488 nm and 543 nm. Incident light was passed through a 545 nm dichroic mirror and observed via a 500 to 530 nm band-pass (green) filter and a 560 nm long-pass (red) barrier filter.
(§2) However, such effects were not observed in HEK293 cells. […]

Experiment [4] deals with HEK293 cells. In words: mitochondrial membrane potential (TMRE fluorescence) in HEK293 cells. In kind it is cell-based, human. The method, then:
as §1, §2

For experiment [5], the system named is HepG2 cells. In words: mitochondrial oxygen consumption (Clark-type oxygen electrode) in HepG2 cells. In kind it is cell-based, human. An excerpt:
FIG. 22 is a graph showing monitoring results of mitochondrial oxygen consumption using a Clark-type oxygen electrode;

In experiment [6] the test system is AMPK, ACC. Put plainly: AMPK kinase / ACC activity in HepG2 cells. Type of experiment: cell-based, human.
Experiment [7] is described as follows: swimming test of physical endurance. Type of experiment: in vivo, mouse. The note with it: C57BL/6 DIO mice, single administration, 3 hours later. The protocol: This Example was intended to measure a difference in physical endurance of mice through a swimming test. For this purpose, water was placed in a cylindrical trough having a diameter of 9.5 cm and a height of 25 cm, and pyrano-1,2-naphthoquinone was administered to C57BL/6 DIO mice. 3 hours later, a sample-administered group and a control group were placed simultaneously into each cylindrical trough for measurement, and physical endurance of each group was measured and compared.

[8] abbreviates: muscle of DIO mice vs control group.

Regarding `CC1(C)CCC2=C(O1)c1ccccc1C(=O)C2=O` [βL, 2,2-Dimethyl-3,4-dihydro-2H-benzo[h]chromene-5,6-dione], the “intracellular NADH concentration” value in experiment [1] (HEK293 cells after insertion of an NQO1 gene) was “concentration-dependent decrease of NADH”. In addition, in experiment [1] (HEK293 cells having no NQO1 activity), the “intracellular NADH concentration” value is “no change in an NADH concentration”. For the same compound, the “NAD(P)H oxidation” value in experiment [1] (HEK293 cells with insertion of a wild-type NQO1 gene) is reported as “βL-facilitated NAD(P)H oxidation”. Further, the “NAD(P)H oxidation” value in experiment [1] (HEK293 cells with insertion of catalytically inactive NQO1C609T gene) was “no oxidation of NAD(P)H”. For the same compound, the “NAD(P)H oxidation” value in experiment [1] (control HEK293 cells without the NQO1 activity) is reported as “no such changes”. In experiment [2] (setting [8]), the “14C-palmitoyl CoA β-oxidation” value is “significantly increased”, the CPT activity result was “significantly increased” and the HAD activity result was “significantly increased”. In experiment [2] (βL-treated DIO mice), the ACC activity entry is reported as “decreased” and the “malonyl CoA level” value was “decreased”. For the same compound, the “decrease of TMRE fluorescence” value in experiment [3] is given as “about 20%”. Also, the “effect on TMRE fluorescence / ΔΨm” value in experiment [4] is recorded as “not observed”. Further, in experiment [5], the mitochondrial oxygen consumption entry is given as “increased”. Besides, the ACC activation result in experiment [6] was “decreases ACC activation”. For the same compound, the “activity of AMPK” value in experiment [6] (10 μM, 30 min) is recorded as “increased”. In experiment [7], the “increase of swimming duration compared to control” value is given as “two-fold”.
